From patent US20190070113A1, “Treating Ephrin Receptor A2 (Epha2) Positive Cancer with Targeted Docetaxel-Generating Nano-Liposome Compositions” (Merrimack Pharmaceuticals, Inc., priority 2016, published 2019)

What was measured:
#12424 PDX tumor model = test: Efficacy in pancreatic patient derived xenograft #12424 (PDX 12424-8P); conditions: for growth inhibition versus saline control: both dose levels (Gemcitabine 35 and 100 mg/kg; Oxaliplatin 5 and 10 mg/kg)
Procedure: (§1) Experiments were performed according to approved guidelines. CB.17 SCID mice were obtained from Roswell Park Cancer Institute, initially at 6-8 weeks of age. Per treatment group, 8 animals were treated, unless otherwise indicated. Tumor pieces were derived from donor mice and engrafted subcutaneously. Depending on the variability in tumor growth, animals were either randomized to the different arms at one specific timepoint or a rolling randomization was performed in which a subgroup of animals were randomized through a period of time to ensure less variability in starting sizes. Animals were randomized and dosing initiated when tumors reached an average volume of 200-250 mm^3 (range 100-400 mm^3), unless otherwise indicated.
(§2) For efficacy experiments, 46scFv-ILs-DTXp3 were generated as described in composition description.
Intravenous administration of the indicated doses of each agent was initiated when tumors reached an average volume of 200-250 mm^3 and continued for a total of four weekly doses. Tumor volumes were measured once to twice weekly during the dosing cycle and until tumors regrow or reaching maximum monitoring period of 120-160 days or animals were in poor general health and needed to be sacrificed. The tumor progression was monitored by palpation and caliper measurements of the tumors along the largest (length) and smallest (width) axis twice a week.
(§3) Tumor volume (TV)=[(length)×(width)^2]/2
(§4) Single tumor volume curves for each animal were plotted and two metrics that describe antitumor effects were calculated as follows:
(§5) 1) Max Response=[(minimum TV−TV at day 0)/TV at day 0]×100
(§6) 2) Time to regrowth=Time for the tumor to reach four times its initial size
(§7) All statistical analysis between treatment groups was performed using JMP v11.0 software. For treatment group comparison, two-way ANOVA analysis was performed in conjunction with post hoc Tukey HSD statistical analysis.
Model #12424 was maintained by passaging tumor fragments in immunodeficient mice. This PDX model was at passage 8 for study #12424-8P.

PDX model #14244 = test: Efficacy in patient derived xenograft #14244 (PDX 14244-9P); conditions: for maximal tumor response to drug compared to control group: both dose levels
Procedure: The pancreatic xenograft model series are true xenotransplant models that were directly engrafted from patient tumor resections into SCID mice for propagation and maintained by transplantation of tumor fragments (Hylander et al., 2005, 2013). […] CB.17 SCID mice were obtained from Roswell Park Cancer Institute, initially at 6-8 weeks of age. Per treatment group, 8 animals were treated, unless otherwise indicated. Tumor pieces were derived from donor mice and engrafted subcutaneously. Depending on the variability in tumor growth, animals were either randomized to the different arms at one specific timepoint or a rolling randomization was performed in which a subgroup of animals were randomized through a period of time to ensure less variability in starting sizes. Animals were randomized and dosing initiated when tumors reached an average volume of 200-250 mm^3 (range 100-400 mm^3), unless otherwise indicated.
For efficacy experiments, 46scFv-ILs-DTXp3 were generated as described in composition description. […] MM-398 was generated in house using the final commercial process.
(§8) Intravenous administration of the indicated doses of each agent was initiated when tumors reached an average volume of 200-250 mm^3 and continued for a total of four weekly doses. Tumor volumes were measured once to twice weekly during the dosing cycle and until tumors regrow or reaching maximum monitoring period of 120-160 days or animals were in poor general health and needed to be sacrificed. The tumor progression was monitored by palpation and caliper measurements of the tumors along the largest (length) and smallest (width) axis twice a week. The tumor sizes were determined twice weekly from the caliper measurements using the formula (Geran, R. I., et al., 1972 Cancer Chemother. Rep. 3:1-88):
as §3, §4, §5, §6, §7
Model #14244 was maintained by passaging tumor fragments in immunodeficient mice. This PDX model was at passage 9 for study #14244-9P.

[1] = Short-term tolerance test of 46scFv-ILs-DTXp3 with Gemcitabine or Carboplatin; assay type: in vivo, CD-1 female mice; conditions: for histopathology: individual hepatocyte necrosis: carboplatin combo and mono, gemcitabine combo with 46scFv-ILs-DTXp3 100 mpk; for histopathology: extramedullary hematopoiesis in the spleen: carboplatin mono and combo, Gemcitabine combo with 46scFv-ILs-DTXp3 100 mpk
Procedure: Gemcitabine and Carboplatin are chemotherapeutic agents likely to be combined with 46scFv-ILs-DTXp3 in the clinic. Gemcitabine alone is well tolerated in mice; most protocols list an MTD for i.p. dosing around 240 mpk q3d. […] The stock concentration of 46scFv-ILs-DTXp3 was 11.09 mg/ml. Carboplatin was purchased from Hospira Inc and used at a stock concentration of 10 mg/ml. Gemcitibine was purchased from Sun Pharam and used at a stock concentration of 38 mg/ml.
CD-1 female mice (7-8 week old) were obtained from Charles River. During the treatment phase mice body weight was monitored daily. In order to assess the effect of drug scheduling on tolerability, animals were treated with a single dose of 46scFv-ILs-DTXp3 followed by a dose of either carboplatin or gemcitabine at various dose levels and starting at different timepoints post 46scFv-ILs-DTXp3 treatment (Table 3). Additionally, a single treatment group treated with carboplatin or gemcitabine was added.
At study end (10 days after last drug dose, i.e. day 10 for 8 h, day 11 for 24 h, and day 13 for 72 h combinations), mice were euthanized with carbon dioxide. Blood was collected by cardiac puncture. Catalyst analysis used an EQUINE-15 clip with an additional individual ALT assay added (Idexx, Westbrook, Mass.). Tissues collected included liver, kidney, spleen, heart, skeletal muscle (with skin attached). Tissues were fixed in 10% neutral buffered formalin ˜24 h, then stored in 70% ethanol. Tissues from mice in the highest-dose groups (all time points) as well as untreated and single-agent controls were shipped to Mass Histology Inc (Worcester, Mass.) for processing, and H&E staining of sectioned tissues. Received slides were scanned at 20X on the aperio bright field scanner.

[2] = mice; i.p. dosing q3d; most protocols list; cited from earlier work
[3] = tested on: Pancreatic PDX model #15010; test: Efficacy in pancreatic patient derived xenograft #15010 (PDX 15010-P5)
Procedure: as §1, §2, §8, §3, §4, §5, §6, §7

[4] = tested on: human ovarian patient derived model OVx-132; test: Combination with carboplatin in ovarian patient derived model OVx-132; assay type: in vivo, Immunodeficient mice; conditions: for growth arrest and tumor regression: docetaxel 5 mg/kg, 46scFv-ILs-DTXp3 25 mg/kg, carboplatin 60 mg/kg, combinations dosed 3 days apart, carboplatin first; for Time-to-tumor regrowth (TTR; time for tumor to double its volume): monitored 160 days
Procedure: Immunodeficient mice were implanted with human ovarian patient derived model OVx-132. Animals randomized into the following experimental groups: Saline, docetaxel at 5 mg/kg, 46scFv-ILs-DTXp3 at 25 mg/kg, carboplatin 60 mg/kg, carboplatin/docetaxel, and carboplatin/46scFv-ILs-DTXp3. For the combinations groups carboplatin/docetaxel and carboplatin/46scFv-ILs-DTXp3 doses used for the monotherapy arms were combined and dosed 3 days a part with carboplatin being dosed first followed by the docetaxel or 46scFv-ILs-DTXp3.
The animals received four tail vein injections, at the intervals of 7 days. Tumor size was monitored once to twice weekly.
Tumor volume(TV)=[(length)×(width)^2]/2
Maximum response was calculated using the following formula where TV is tumor volume:
Max tumor regression=[(TVmin−TVday0)/TVday0]×100
Maximum tumor regression was classified as complete tumor regression (100% regression with no palpable tumor), partial tumor regression (max tumor regression more than 30%) or no tumor regression.
Animals were monitored until tumor regrowth or end of monitoring period (>120 days). Time to regrowth was defined as time for tumor to double its volume. Animals sacrificed prior to tumor volume doubling are censored.

Hydrolysis in buffer = assay type: physicochemical; conditions: 37° C.
Procedure: A volume of a 10 mg/mL solution of drug in DMSO as needed to provide the desired concentration (typically 16 μL to yield a 80 μg/mL solution) (see Table 1) is placed in a glass test tube or 4 mL vial. Additional DMSO may also be added (e.g. 64 μL when using 16 μL of drug solution) to yield a final total DMSO concentration of 4%. The DMSO solutions are mixed by brief vortexing, and then 2 mL (20 mM) HEPES buffer for pH 7.5 and 2 mL of (20 mM) phosphate buffer for pH 2.5 is added and the mixture is vortexed again. The initial pH may be adjusted by addition of HCl or NaOH.
Then 100 μL aliquots of the buffer solution of drug are transferred into HPLC vials and incubated in a 37° C. water bath. The remaining solution is also incubated at 37° C. in 4 mL vials for monitoring of pH.
At each time point 900 μL of 0.1% trifluoroacetic acid (TFA) in acetonitrile (ACN) is added to the HPLC vial and the contents are vortexed. The vials are then placed in an autosampler rack at 4° C. for HPLC analysis.
Time zero data points are typically obtained from a solution of 4 μL DMSO stock in 5 mL of 0.1% TFA/ACN (8 μg/mL).
HPLC analysis is performed on a SYNERGI 4 micron Polar RP-80A, 250×4.6 mm column, using a flow rate of 1 mL./min, a 50 μL injection volume, column temperature of 25° C. and with UV detection at 227 nm. Most compounds are analyzed using a 13 min gradient (Method A) from 30 to 66% acetonitrile in aqueous 0.1% TFA, followed by a 1 min gradient back to 30% and a hold at 30% for 6 minutes. If the retention time is too long for this method, a 20 min gradient (Method B) of 30 to 90% acetonitrile, followed by a 1 min return to 30% and held for 9 min at 30% is employed.
The extent of hydrolysis is reported in Table 4 below as the % PTX or DTX formation based on relative peak areas.

Procedure for PDX 14244-10P: CB.17 SCID mice were obtained from Roswell Park Cancer Institute, initially at 6-8 weeks of age. Per treatment group, 8 animals were treated, unless otherwise indicated. Tumor pieces were derived from donor mice and engrafted subcutaneously. Depending on the variability in tumor growth, animals were either randomized to the different arms at one specific timepoint or a rolling randomization was performed in which a subgroup of animals were randomized through a period of time to ensure less variability in starting sizes. Animals were randomized and dosing initiated when tumors reached an average volume of 200-250 mm^3 (range 100-400 mm^3), unless otherwise indicated.
Intravenous administration of the indicated doses of each agent was initiated when tumors reached an average volume of 200-250 mm^3 and continued for a total of four weekly doses. Tumor volumes were measured once to twice weekly during the dosing cycle and until tumors regrow or reaching maximum monitoring period of 120-160 days or animals were in poor general health and needed to be sacrificed. The tumor progression was monitored by palpation and caliper measurements of the tumors along the largest (length) and smallest (width) axis twice a week. The tumor sizes were determined twice weekly from the caliper measurements using the formula (Geran, R. I., et al., 1972 Cancer Chemother. Rep. 3:1-88): […]

## Nc1ccn([C@@H]2O[C@H](CO)[C@@H](O)C2(F)F)c(=O)n1 [Gemcitabine]
#12424 PDX tumor model
  growth inhibition versus saline control: statistically insignificant from saline control
PDX model #14244; 35 mg/kg
  delay of regrowth compared to saline (time to regrowth): two
PDX model #14244; 100 mg/kg
  delay of regrowth compared to saline (time to regrowth): 18 days
PDX model #14244
  maximal tumor response to drug compared to control group: did not demonstrate a significant tumor response to drug
[1]; Gemcitabine 292 mg/kg, 72 h post-46scFv-ILs-DTXp3
  growth (body weight): least growth of the 292 mg/kg groups
[1]; Gemcitabine 292 mg/kg, 72 h post-46scFv-ILs-DTXp3, study end
  ALT and AST: elevated ALT and AST at study end
[1]; highest-dose groups
  histopathology: individual hepatocyte necrosis: increased incidence of individual hepatocyte necrosis (minimal to mild)
  histopathology: extramedullary hematopoiesis in the spleen: Increased extramedullary hematopoieisis (EMH) in the spleen
[1]; mice, following an i.v. dose for 10 days, doses as high as 291.6 mg/kg
  toxicity (weight loss or catalyst enzyme profiling different than control mice): did not find toxicity
[2]
  MTD: around 240 mpk
[3]; 35 mg/kg
  maximal response: decrease in tumor volume: 27%
  tumor growth inhibition relative to control (time to regrowth): 27 days
[3]; 100 mg/kg
  maximal response: decrease in tumor volume: 37%
  tumor growth inhibition relative to control (time to regrowth): 37 days
PDX 14244-10P; 100 mg/kg
  time to regrowth: growth inhibition: 21.9 days
PDX 14244-10P; Gemcitabine monotherapy (100 mg/kg)
  maximal response to therapy (tumor response): 42.11%

## N.N.O=C([O-])C1(C(=O)[O-])CCC1.[Pt+2] [Carboplatin]
[1]; Carboplatin 84 mg/kg dosed 8 h or 24 h after 46scFv-ILs-DTXp3 100 mpk, regained weight by day 10-11
  weight loss in individual mice at day 6: at most 10%
[1]; highest-dose groups
  histopathology: individual hepatocyte necrosis: increased incidence of individual hepatocyte necrosis (minimal to mild)
  histopathology: extramedullary hematopoiesis in the spleen: Increased extramedullary hematopoieisis (EMH) in the spleen
[1]; carboplatin treated groups, highest-dose groups
  histopathology: mitotic rate in the liver: increase in mitotic rate in the liver
[4]
  growth arrest and tumor regression: minimal growth arrest and no tumor regression
  Time-to-tumor regrowth (TTR; time for tumor to double its volume): minor delay on time to regrowth

## CC(=O)O[C@@]12CO[C@@H]1C[C@H](O)[C@@]1(C)C(=O)[C@H](O)C3=C(C)[C@@H](OC(=O)[C@H](O)[C@@H](NC(=O)OC(C)(C)C)c4ccccc4)C[C@@](O)([C@@H](OC(=O)c4ccccc4)[C@H]21)C3(C)C [docetaxel]
[4]
  growth arrest and tumor regression: minimal growth arrest and no tumor regression
  Time-to-tumor regrowth (TTR; time for tumor to double its volume): minor delay on time to regrowth

## O=C1[O][Pt]2([NH][C@@H]3CCCC[C@H]3[NH]2)[O]C1=O [Oxaliplatin]
#12424 PDX tumor model
  growth inhibition versus saline control: statistically insignificant from saline control
PDX model #14244; 5 mg/kg
  delay of regrowth over control group (time to regrowth): 2 days
PDX model #14244; 10 mg/kg
  delay of regrowth over control group (time to regrowth): 1 days
PDX model #14244
  maximal tumor response to drug compared to control group: did not demonstrate a significant tumor response to drug
[3]; 10 mg/kg
  tumor growth inhibition relative to control (time to regrowth): 30 days
[3]; both treatment doses
  maximal tumor response to drug versus saline control: did not show a statistically significant difference from saline control

## CC(=O)O[C@@]12CO[C@@H]1C[C@H](O)[C@@]1(C)C(=O)[C@H](O)C3=C(C)[C@@H](OC(=O)[C@H](OC(=O)CCCN(C)C)[C@@H](NC(=O)OC(C)(C)C)c4ccccc4)C[C@@](O)([C@@H](OC(=O)c4ccccc4)[C@H]21)C3(C)C.Cl [Compound 4]
Hydrolysis in buffer; pH 2.5, 0 h
  Percentage of Hydrolysis (% DTX formation): 0.00%
Hydrolysis in buffer; pH 2.5, 5 h
  Percentage of Hydrolysis (% DTX formation): 0.00%
Hydrolysis in buffer; pH 2.5, 24 h
  Percentage of Hydrolysis (% DTX formation): 0.00%
Hydrolysis in buffer; pH 2.5, 48 h
  Percentage of Hydrolysis (% DTX formation): 0.00%
Hydrolysis in buffer; pH 2.5, 96 h
  Percentage of Hydrolysis (% DTX formation): 0%
Hydrolysis in buffer; pH 7.5, 0 h
  Percentage of Hydrolysis (% DTX formation): 0.00%
Hydrolysis in buffer; pH 7.5, 5 h
  Percentage of Hydrolysis (% DTX formation): 76.07%
Hydrolysis in buffer; pH 7.5, 24 h
  Percentage of Hydrolysis (% DTX formation): 100.00%
Hydrolysis in buffer; pH 7.5, 48 h
  Percentage of Hydrolysis (% DTX formation): 100.00%
Hydrolysis in buffer; pH 7.5, 96 h
  Percentage of Hydrolysis (% DTX formation): 100%

## O=c1[nH]cc(F)c(=O)[nH]1 [5-Fluorouracil]
#12424 PDX tumor model; 50 mg/kg, four weekly IV doses
  inhibition of tumor growth compared to saline control (time to regrowth): 12 days

## CCN(CC)CCCC(=O)O[C@@H](C(=O)O[C@H]1C[C@@]2(O)[C@@H](OC(=O)c3ccccc3)[C@@H]3[C@]4(OC(C)=O)CO[C@@H]4C[C@H](O)[C@@]3(C)C(=O)[C@H](O)C(=C1C)C2(C)C)[C@@H](NC(=O)OC(C)(C)C)c1ccccc1.Cl [Compound 3, 2′-O-(4-Diethylamino Butanoyl) DTX Hydrochloride]
Hydrolysis in buffer; pH 2.5, 0 h
  Percentage of Hydrolysis (% DTX formation): 0.00%
Hydrolysis in buffer; pH 2.5, 5 h
  Percentage of Hydrolysis (% DTX formation): 0.00%
Hydrolysis in buffer; pH 2.5, 24 h
  Percentage of Hydrolysis (% DTX formation): 0.00%
Hydrolysis in buffer; pH 2.5, 48 h
  Percentage of Hydrolysis (% DTX formation): 0.00%
Hydrolysis in buffer; pH 2.5, 96 h
  Percentage of Hydrolysis (% DTX formation): 0%
Hydrolysis in buffer; pH 7.5, 0 h
  Percentage of Hydrolysis (% DTX formation): 0.00%
Hydrolysis in buffer; pH 7.5, 5 h
  Percentage of Hydrolysis (% DTX formation): 45.76%
Hydrolysis in buffer; pH 7.5, 24 h
  Percentage of Hydrolysis (% DTX formation): 100.00%
Hydrolysis in buffer; pH 7.5, 48 h
  Percentage of Hydrolysis (% DTX formation): 100.00%
Hydrolysis in buffer; pH 7.5, 96 h
  Percentage of Hydrolysis (% DTX formation): 100%
